Starred links: 1 amine or outer side, 2 acyl side, 3 side chain; linkers in the order of their positions; H or OH if unused. Non-standard residues stand in square brackets, D forms with d. Residues, ends and D or L forms follow the SMILES beside them. Groups on a side chain read outwards from the residue. *: point of attachment. C20 diacid = O=C(O)CCCCCCCCCCCCCCCCCCC(=O)*; C18 diacid = O=C(O)CCCCCCCCCCCCCCCCC(=O)*; γGlu = O=C(O)[C@H](CCC(=O)[*:2])N[*:1]; αMeF = C[C@](N)(Cc1ccccc1)C(=O)O; AEEA = NCCOCCOCC(=O)O; Aib = CC(C)(N)C(=O)O
Assays:
[1] = target: human GLP-1 receptor (hGLP-1R) (Homo sapiens, UniProt P43220); assay: cAMP production (HTRF) in CHO cells expressing hGLP-1R; type: cell-based; design: expressed in transfected cells; settings: for EC50: Table 7, peptides modified at position 20, cAMP in CHO hGLP-1R cells, geometric mean, read-out: hGLP-1R EC50; for % Relative Potency Ratio: Table 7, % GLP-1R activity relative to GLP-1 / % GlucR activity relative to glucagon
Chain of human GLP-1 receptor (hGLP-1R) (P43220 24-463): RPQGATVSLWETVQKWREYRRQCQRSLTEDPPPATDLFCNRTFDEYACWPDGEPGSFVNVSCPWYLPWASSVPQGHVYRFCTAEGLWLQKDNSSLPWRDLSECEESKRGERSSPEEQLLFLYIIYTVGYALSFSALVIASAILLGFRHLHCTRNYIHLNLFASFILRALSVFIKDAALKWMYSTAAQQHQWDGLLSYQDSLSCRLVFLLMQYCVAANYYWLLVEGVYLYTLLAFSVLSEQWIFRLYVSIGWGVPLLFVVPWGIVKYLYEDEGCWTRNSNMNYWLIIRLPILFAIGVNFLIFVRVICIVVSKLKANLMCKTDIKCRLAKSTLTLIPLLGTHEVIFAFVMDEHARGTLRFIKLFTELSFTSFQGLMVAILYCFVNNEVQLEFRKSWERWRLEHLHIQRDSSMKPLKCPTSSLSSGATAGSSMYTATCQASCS
Outline: (§1)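 Read-out: HTRF cAMP (anti-cAMP cryptate donor, cAMP-d2 acceptor in conjugate/lysis buffer), converted to % Delta F and fitted by 4-parameter logistic for EC50. Cell densities were 1×10^5 cells/mL (hGLP-1R) or 2×10^5 cells/mL (hGCGR). Stimulation lasted 30 min at room temperature.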

[2] = target: human glucagon receptor (hGCGR) (Homo sapiens, UniProt P47871); assay: cAMP production (HTRF) in CHO cells expressing hGCGR; type: cell-based; design: expressed in transfected cells; settings: Table 7, peptides modified at position 20; cAMP in CHO hGCGR cells; geometric mean; read-out: hGluc-R EC50
Chain of human glucagon receptor (hGCGR) (P47871 26-477): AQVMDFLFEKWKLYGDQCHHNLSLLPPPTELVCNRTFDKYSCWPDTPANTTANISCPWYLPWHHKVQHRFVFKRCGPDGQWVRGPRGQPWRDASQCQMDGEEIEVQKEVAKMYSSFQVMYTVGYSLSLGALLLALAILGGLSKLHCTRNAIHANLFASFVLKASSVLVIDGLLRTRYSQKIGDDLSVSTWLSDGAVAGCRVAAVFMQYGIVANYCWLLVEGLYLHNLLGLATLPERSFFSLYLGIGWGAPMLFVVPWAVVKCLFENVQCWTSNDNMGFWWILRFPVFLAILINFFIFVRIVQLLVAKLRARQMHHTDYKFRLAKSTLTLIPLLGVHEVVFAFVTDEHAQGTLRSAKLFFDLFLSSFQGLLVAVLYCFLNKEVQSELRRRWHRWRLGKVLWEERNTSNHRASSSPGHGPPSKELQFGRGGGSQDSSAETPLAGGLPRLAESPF
Outline: as §1

SMILES	EC50 [1]	% Relative Potency Ratio [1]	EC50 [2]
CC[C@H](C)[C@H](NC(=O)[C@H](Cc1c[nH]c2ccccc12)NC(=O)[C@H](CCC(N)=O)NC(=O)[C@@H](NC(=O)[C@](C)(Cc1ccccc1)NC(=O)[C@H](CC(=O)O)NC(=O)[C@H](CCCCNC(=O)COCCOCCNC(=O)COCCOCCNC(=O)CC[C@H](NC(=O)CCCCCCCCCCCCCCCCC(=O)O)C(=O)O)NC(=O)[C@H](C)NC(=O)[C@H](C)NC(=O)[C@H](CCCNC(=N)N)NC(=O)[C@H](CO)NC(=O)[C@H](CC(=O)O)NC(=O)[C@H](CC(C)C)NC(=O)[C@](C)(Cc1ccccc1)NC(=O)[C@H](CCCCN)NC(=O)[C@H](CO)NC(=O)[C@@H](NC(=O)[C@H](CC(=O)O)NC(=O)[C@H](CO)NC(=O)[C@@H](NC(=O)[C@](C)(Cc1ccccc1)NC(=O)[C@H](CO)NC(=O)CNC(=O)[C@H](Cc1c[nH]cn1)NC(=O)C(C)(C)NC(=O)[C@@H](N)Cc1c[nH]cn1)[C@@H](C)O)C(C)C)C(C)C)C(=O)N[C@@H](C)C(=O)N[C@@H](CC(N)=O)C(=O)N[C@H](C(N)=O)[C@@H](C)O [Peptide 288] (H-H[Aib]HGS[αMeF]TSDVSK[αMeF]LDSRAAK([AEEA-AEEA-γGlu-C18 diacid])D[αMeF]VQWIANT-NH2)	0.0427 nM	1.2	0.0269 nM
CC[C@H](C)[C@H](NC(=O)[C@H](Cc1c[nH]c2ccccc12)NC(=O)[C@H](CCC(N)=O)NC(=O)[C@@H](NC(=O)[C@](C)(Cc1ccccc1)NC(=O)[C@H](CC(=O)O)NC(=O)[C@H](CCCCNC(=O)COCCOCCNC(=O)COCCOCCNC(=O)CC[C@H](NC(=O)CC[C@H](NC(=O)CCCCCCCCCCCCCCCCCCC(=O)O)C(=O)O)C(=O)O)NC(=O)[C@H](C)NC(=O)[C@H](C)NC(=O)[C@H](CCCNC(=N)N)NC(=O)[C@H](CO)NC(=O)[C@H](CC(=O)O)NC(=O)[C@H](CC(C)C)NC(=O)[C@H](Cc1ccc(O)cc1)NC(=O)[C@H](CCCCN)NC(=O)[C@H](CO)NC(=O)[C@@H](NC(=O)[C@H](CC(=O)O)NC(=O)[C@H](CO)NC(=O)[C@@H](NC(=O)[C@H](Cc1ccccc1)NC(=O)[C@H](CO)NC(=O)CNC(=O)[C@H](Cc1c[nH]cn1)NC(=O)C(C)(C)NC(=O)[C@@H](N)Cc1c[nH]cn1)[C@@H](C)O)C(C)C)C(C)C)C(=O)N[C@@H](C)C(=O)N[C@@H](CC(N)=O)C(=O)N[C@H](C(N)=O)[C@@H](C)O [Peptide 291] (H-H[Aib]HGSFTSDVSKYLDSRAAK([AEEA-AEEA-γGlu-γGlu-C20 diacid])D[αMeF]VQWIANT-NH2)	1.51 nM	1.1	0.847 nM
CC[C@H](C)[C@H](NC(=O)[C@H](Cc1c[nH]c2ccccc12)NC(=O)[C@H](CCC(N)=O)NC(=O)[C@@H](NC(=O)[C@H](Cc1ccccc1)NC(=O)[C@H](CC(=O)O)NC(=O)[C@H](CCCCNC(=O)COCCOCCNC(=O)COCCOCCNC(=O)CC[C@H](NC(=O)CCCCCCCCCCCCCCCCC(=O)O)C(=O)O)NC(=O)[C@H](C)NC(=O)[C@H](C)NC(=O)[C@H](CCCNC(=N)N)NC(=O)[C@H](CO)NC(=O)[C@H](CC(=O)O)NC(=O)[C@H](CC(C)C)NC(=O)[C@H](Cc1ccc(O)cc1)NC(=O)[C@H](CCCCN)NC(=O)[C@H](CO)NC(=O)[C@@H](NC(=O)[C@H](CC(=O)O)NC(=O)[C@H](CO)NC(=O)[C@@H](NC(=O)[C@](C)(Cc1ccccc1)NC(=O)[C@H](CO)NC(=O)CNC(=O)[C@H](Cc1c[nH]cn1)NC(=O)C(C)(C)NC(=O)[C@@H](N)Cc1c[nH]cn1)[C@@H](C)O)C(C)C)C(C)C)C(=O)N[C@@H](C)C(=O)N[C@@H](CC(N)=O)C(=O)N[C@H](C(N)=O)[C@@H](C)O [Peptide 292] (H-H[Aib]HGS[αMeF]TSDVSKYLDSRAAK([AEEA-AEEA-γGlu-C18 diacid])DFVQWIANT-NH2)	0.0287 nM	1.4	0.0204 nM
CC[C@H](C)[C@H](NC(=O)[C@H](Cc1c[nH]c2ccccc12)NC(=O)[C@H](CCC(N)=O)NC(=O)[C@@H](NC(=O)[C@H](Cc1ccccc1)NC(=O)[C@H](CC(=O)O)NC(=O)[C@H](CCCCNC(=O)COCCOCCNC(=O)COCCOCCNC(=O)CC[C@H](NC(=O)CCCCCCCCCCCCCCCCC(=O)O)C(=O)O)NC(=O)[C@H](C)NC(=O)[C@H](C)NC(=O)[C@H](CCCNC(=N)N)NC(=O)[C@H](CO)NC(=O)[C@H](CC(=O)O)NC(=O)[C@H](CC(C)C)NC(=O)[C@](C)(Cc1ccccc1)NC(=O)[C@H](CCCCN)NC(=O)[C@H](CO)NC(=O)[C@@H](NC(=O)[C@H](CC(=O)O)NC(=O)[C@H](CO)NC(=O)[C@@H](NC(=O)[C@H](Cc1ccccc1)NC(=O)[C@H](CO)NC(=O)CNC(=O)[C@H](Cc1c[nH]cn1)NC(=O)C(C)(C)NC(=O)[C@@H](N)Cc1c[nH]cn1)[C@@H](C)O)C(C)C)C(C)C)C(=O)N[C@@H](C)C(=O)N[C@@H](CC(N)=O)C(=O)N[C@H](C(N)=O)[C@@H](C)O [Peptide 293] (H-H[Aib]HGSFTSDVSK[αMeF]LDSRAAK([AEEA-AEEA-γGlu-C18 diacid])DFVQWIANT-NH2)	0.092 nM	0.7	0.0335 nM

Other lines, results leading:

EC50 [1]	% Relative Potency Ratio [1]	EC50 [2]	SMILES
0.301 nM	0.6	0.087 nM	CC[C@H](C)[C@H](NC(=O)C(C)(C)NC(=O)[C@H](CCC(N)=O)NC(=O)[C@@H](NC(=O)[C@](C)(Cc1ccccc1)NC(=O)[C@H](CC(=O)O)NC(=O)[C@H](CCCCNC(=O)COCCOCCNC(=O)COCCOCCNC(=O)CC[C@H](NC(=O)CCCCCCCCCCCCCCCCC(=O)O)C(=O)O)NC(=O)[C@H](C)NC(=O)[C@H](C)NC(=O)[C@H](CCCNC(=N)N)NC(=O)[C@H](CO)NC(=O)[C@H](CC(=O)O)NC(=O)[C@H](CC(C)C)NC(=O)[C@](C)(Cc1ccccc1)NC(=O)[C@H](CCCCN)NC(=O)[C@H](CO)NC(=O)[C@@H](NC(=O)[C@H](CC(=O)O)NC(=O)[C@H](CO)NC(=O)[C@@H](NC(=O)[C@H](Cc1ccccc1)NC(=O)[C@H](CO)NC(=O)CNC(=O)[C@H](Cc1c[nH]cn1)NC(=O)C(C)(C)NC(=O)[C@@H](N)Cc1c[nH]cn1)[C@@H](C)O)C(C)C)C(C)C)C(=O)N[C@@H](C)C(=O)N[C@@H](CC(N)=O)C(=O)N[C@H](C(N)=O)[C@@H](C)O [Peptide 285] (H-H[Aib]HGSFTSDVSK[αMeF]LDSRAAK([AEEA-AEEA-γGlu-C18 diacid])D[αMeF]VQ[Aib]IANT-NH2)
0.0316 nM	3.3	0.053 nM	CC[C@H](C)[C@H](NC(=O)C(C)(C)NC(=O)[C@H](CCC(N)=O)NC(=O)[C@@H](NC(=O)[C@](C)(Cc1ccccc1)NC(=O)[C@H](CC(=O)O)NC(=O)[C@H](CCCCNC(=O)COCCOCCNC(=O)COCCOCCNC(=O)CC[C@H](NC(=O)CCCCCCCCCCCCCCCCC(=O)O)C(=O)O)NC(=O)[C@H](C)NC(=O)[C@H](C)NC(=O)[C@H](CCCNC(=N)N)NC(=O)[C@H](CO)NC(=O)[C@H](CC(=O)O)NC(=O)[C@H](CC(C)C)NC(=O)[C@H](Cc1ccc(O)cc1)NC(=O)[C@H](CCCCN)NC(=O)[C@H](CO)NC(=O)[C@@H](NC(=O)[C@H](CC(=O)O)NC(=O)[C@H](CO)NC(=O)[C@@H](NC(=O)[C@](C)(Cc1ccccc1)NC(=O)[C@H](CO)NC(=O)CNC(=O)[C@H](Cc1c[nH]cn1)NC(=O)C(C)(C)NC(=O)[C@@H](N)Cc1c[nH]cn1)[C@@H](C)O)C(C)C)C(C)C)C(=O)N[C@@H](C)C(=O)N[C@@H](CC(N)=O)C(=O)N[C@H](C(N)=O)[C@@H](C)O [Peptide 286] (H-H[Aib]HGS[αMeF]TSDVSKYLDSRAAK([AEEA-AEEA-γGlu-C18 diacid])D[αMeF]VQ[Aib]IANT-NH2; N-terminus assumed)

— patent US20250353891A1 (MEDIMMUNE LIMITED, priority 2022, published 2025)
